From patent publication US10730872B2, “Pesticidally active heterocyclic derivatives with sulphur containing sustitutents” (SYNGENTA PARTICIPATIONS AG, priority 2015, dated 2020)

Assays:
Assay type in all cases: in vivo
[1] = system: Euschistus heros; assay: Euschistus heros (Neotropical Brown Stink Bug); conditions: 120 h, application rate of 200 ppm, sprayed soybean leaves, N2 nymphs, 5 days after infestation, read-out: effect in at least one of the two categories (mortality or growth inhibition)
Experimental: Soybean leaves on agar in 24-well microtiter plates were sprayed with aqueous test solutions prepared from 10,000 ppm DMSO stock solutions. After drying the leaves were infested with N2 nymphs. The samples were assessed for mortality and growth inhibition in comparison to untreated samples 5 days after infestation.

[2] = system: Bemisia tabaci; assay: Bemisia tabaci (Cotton White Fly): Feeding/Contact Activity; conditions: foliar, 144 h, application rate of 200 ppm, sprayed cotton leaf discs, adult white flies, 6 days after incubation
Experimental: Cotton leaf discs were placed on agar in 24-well microtiter plates and sprayed with aqueous test solutions prepared from 10,000 ppm DMSO stock solutions. After drying the leaf discs were infested with adult white flies. The samples were checked for mortality 6 days after incubation.

[3] = system: Myzus persicae; assay: Myzus persicae (Green Peach Aphid). Systemic Activity; conditions: 144 h, test rate of 24 ppm, roots of infested pea seedlings in test solution, 6 days
Experimental: Roots of pea seedlings infested with an aphid population of mixed ages were placed directly into aqueous test solutions prepared from 10,000 DMSO stock solutions. The samples were assessed for mortality 6 days after placing seedlings into test solutions.

[4] = system: Spodoptera littoralis; assay: Spodoptera littoralis (Egyptian Cotton Leaf Worm), sprayed cotton leaf discs; conditions: foliar, 72 h, application rate of 200 ppm, L1 larvae, 3 days after infestation
Experimental: Cotton leaf discs were placed onto agar in 24-well microtiter plates and sprayed with aqueous test solutions prepared from 10,000 ppm DMSO stock solutions. After drying the leaf discs were infested with five L1 larvae. The samples were assessed for mortality, anti-feeding effect, and growth inhibition in comparison to untreated samples 3 days after infestation. Control of Spodoptera littoralis by a test sample is given when at least one of the categories mortality, anti-feedant effect, and growth inhibition is higher than the untreated sample.

[5] = system: Myzus persicae; assay: Myzus persicae (Green Peach Aphid): Feeding/Contact Activity; conditions: foliar, 144 h, application rate of 200 ppm, sprayed sunflower leaf discs, aphid population of mixed ages, 6 days after infestation
Experimental: Sunflower leaf discs were placed onto agar in a 24-well microtiter plate and sprayed with aqueous test solutions prepared from 10,000 ppm DMSO stock solutions. After drying, the leaf discs were infested with an aphid population of mixed ages. The samples were assessed for mortality 6 days after infestation.

[6] = system: Plutella xylostella; assay: Plutella xylostella (Diamond Back Moth); conditions: 120 h, application rate of 200 ppm, artificial diet, L2 larvae, 5 days after infestation, read-out: effect in at least one of the two categories (mortality or growth inhibition)
Experimental: (§1) 24-well microtiter plates with artificial diet were treated with aqueous test solutions prepared from 10,000 ppm DMSO stock solutions by pipetting. After drying, the plates were infested with L2 larvae (10 to 15 per well). The samples were assessed for mortality and growth inhibition in comparison to untreated samples 5 days after infestation.

[7] = system: Spodoptera littoralis; assay: Spodoptera littoralis (Egyptian Cotton Leaf Worm), uptake by lettuce roots from agar; conditions: 144 h, test rate of 12.5 ppm, mixed with agar, absorbed by lettuce roots, Spodoptera eggs, 6 days after infestation, read-out: effect in at least one of the three categories (mortality, anti-feeding, or growth inhibition)
Text: Test compounds were applied by pipette from 10,000 ppm DMSO stock solutions into 24-well plates and mixed with agar. Lettuce seeds were placed onto the agar and the multi well plate was closed by another plate which contained also agar. After 7 days the compound was absorbed by the roots and the lettuce grew into the lid plate. The lettuce leaves were then cut off into the lid plate. Spodoptera eggs were pipetted through a plastic stencil onto a humid gel blotting paper and the lid plate was closed with it. The samples were assessed for mortality, anti-feedant effect and growth inhibition in comparison to untreated samples 6 days after infestation.

[8] = system: Diabrotica balteata; assay: Diabrotica balteata (Corn Root Worm); conditions: 96 h, application rate of 200 ppm, sprayed maize sprouts, L2 larvae, 4 days after infestation, read-out: effect in at least one of the two categories (mortality or growth inhibition)
Experimental: as §1, with “Maize sprouts placed onto an agar layer in 24-well” for “24-well”, “plates” for “plates with artificial diet”, “spraying.” for “pipetting.”, “(6” for “(10”, “10” for “15”, “4” for “5”

CCn1c(C(F)(F)F)cc2nc(-c3ncc(NC(=O)C4CC4)cc3S(=O)(=O)CC)n(C)c2c1=O [Compound A7, N-[6-[5-ethyl-3-methyl-4-oxo-6-(trifluoromethyl)imidazo[4,5-c]pyridin-2-yl]-5-ethylsulfonyl-3-pyridyl]cyclopropanecarboxamide]
≥ 80%: percent effect (mortality or growth inhibition) at 200 ppm [1] | mortality at 200 ppm [2] | mortality at 24 ppm [3] | percent control (mortality, anti-feeding effect or growth inhibition) at 200 ppm [4] | mortality at 200 ppm [5] | percent effect (mortality or growth inhibition) at 200 ppm [6]

CCn1c(C(F)(F)F)cc2nc(-c3ncc(N(C)C(=O)C4CC4)cc3S(=O)(=O)CC)n(C)c2c1=O [Compound A9, N-[6-[5-ethyl-3-methyl-4-oxo-6-(trifluoromethyl)imidazo[4,5-c]pyridin-2-yl]-5-ethylsulfonyl-3-pyridyl]-N-methyl-cyclopropanecarboxamide]
≥ 80%: percent effect (mortality or growth inhibition) at 200 ppm [1] | mortality at 200 ppm [2] | mortality at 24 ppm [3] | percent effect (mortality, anti-feeding or growth inhibition) at 12.5 ppm [7] | percent control (mortality, anti-feeding effect or growth inhibition) at 200 ppm [4] | mortality at 200 ppm [5] | percent effect (mortality or growth inhibition) at 200 ppm [6]

CCn1c(C(F)(F)F)cc2nc(-c3nc(C(=O)NC4CC4)ccc3S(=O)(=O)CC)n(C)c2c1=O [Compound A20, N-cyclopropyl-6-[5-ethyl-3-methyl-4-oxo-6-(trifluoromethyl)imidazo[4,5-c]pyridin-2-yl]-5-ethylsulfonyl-pyridine-2-carboxamide]
≥ 80%: percent effect (mortality or growth inhibition) at 200 ppm [1] | mortality at 200 ppm [2] | mortality at 24 ppm [3] | percent effect (mortality, anti-feeding or growth inhibition) at 12.5 ppm [7] | percent control (mortality, anti-feeding effect or growth inhibition) at 200 ppm [4] | mortality at 200 ppm [5] | percent effect (mortality or growth inhibition) at 200 ppm [6]

CCn1c(C(F)(F)F)cc2nc(-c3ncc(N/C=N/OC)cc3S(=O)(=O)CC)n(C)c2c1=O [Compound A26, N-[6-[5-ethyl-3-methyl-4-oxo-6-(trifluoromethyl)imidazo[4,5-c]pyridin-2-yl]-5-ethylsulfonyl-3-pyridyl]-N′-methoxy-formamidine]
≥ 80%: effect mortality or growth inhibition at 200 ppm [8] | percent effect (mortality or growth inhibition) at 200 ppm [1] | percent effect (mortality, anti-feeding or growth inhibition) at 12.5 ppm [7] | percent control (mortality, anti-feeding effect or growth inhibition) at 200 ppm [4] | percent effect (mortality or growth inhibition) at 200 ppm [6]

CCn1c(C(F)(F)F)cc2nc(-c3nc(NC4CC4)c(Cl)cc3S(=O)(=O)CC)n(C)c2c1=O [Compound A31, 2-[5-chloro-6-(cyclopropylamino)-3-ethylsulfonyl-2-pyridyl]-5-ethyl-3-methyl-6-(trifluoromethyl)imidazo[4,5-c]pyridin-4-one]
≥ 80%: effect mortality or growth inhibition at 200 ppm [8] | percent effect (mortality or growth inhibition) at 200 ppm [1] | mortality at 200 ppm [2] | percent effect (mortality, anti-feeding or growth inhibition) at 12.5 ppm [7] | percent control (mortality, anti-feeding effect or growth inhibition) at 200 ppm [4] | percent effect (mortality or growth inhibition) at 200 ppm [6]

CCn1c(C(F)(F)F)cc2nc(-c3nc(N(C(=O)C4CC4)C(=O)C4CC4)c(Cl)cc3S(=O)(=O)CC)n(C)c2c1=O [Compound A40, N-[3-chloro-6-[5-ethyl-3-methyl-4-oxo-6-(trifluoromethyl)imidazo[4,5-c]pyridin-2-yl]-5-ethylsulfonyl-2-pyridyl]-N-(cyclopropanecarbonyl)cyclopropanecarboxamide]
≥ 80%: effect mortality or growth inhibition at 200 ppm [8] | percent effect (mortality or growth inhibition) at 200 ppm [1] | mortality at 200 ppm [2] | percent effect (mortality, anti-feeding or growth inhibition) at 12.5 ppm [7] | percent control (mortality, anti-feeding effect or growth inhibition) at 200 ppm [4] | mortality at 200 ppm [5] | percent effect (mortality or growth inhibition) at 200 ppm [6]

CCn1c(C(F)(F)F)cc2nc(-c3nc(NC(=O)C4CC4)c(Cl)cc3S(=O)(=O)CC)n(C)c2c1=O [Compound A41, N-[3-chloro-6-[5-ethyl-3-methyl-4-oxo-6-(trifluoromethyl)imidazo[4,5-c]pyridin-2-yl]-5-ethylsulfonyl-2-pyridyl]cyclopropanecarboxamide]
≥ 80%: effect mortality or growth inhibition at 200 ppm [8] | percent effect (mortality or growth inhibition) at 200 ppm [1] | percent effect (mortality, anti-feeding or growth inhibition) at 12.5 ppm [7] | percent control (mortality, anti-feeding effect or growth inhibition) at 200 ppm [4] | mortality at 200 ppm [5] | percent effect (mortality or growth inhibition) at 200 ppm [6]

CCS(=O)(=O)c1ccc(NN)nc1-c1nc2cc(C(F)(F)F)n(C3CC3)c(=O)c2n1C [Compound A45, 5-cyclopropyl-2-(3-ethylsulfonyl-6-hydrazino-2-pyridyl)-3-methyl-6-(trifluoromethyl)imidazo[4,5-c]pyridin-4-one]
≥ 80%: effect mortality or growth inhibition at 200 ppm [8] | mortality at 24 ppm [3] | percent effect (mortality, anti-feeding or growth inhibition) at 12.5 ppm [7] | percent control (mortality, anti-feeding effect or growth inhibition) at 200 ppm [4] | mortality at 200 ppm [5] | percent effect (mortality or growth inhibition) at 200 ppm [6]

CCS(=O)(=O)c1ccc(NO)nc1-c1nc2cc(C(F)(F)F)n(C3CC3)c(=O)c2n1C [Compound A47, 5-cyclopropyl-2-[3-ethylsulfonyl-6-(hydroxyamino)-2-pyridyl]-3-methyl-6-(trifluoromethyl)imidazo[4,5-c]pyridin-4-one]
≥ 80%: effect mortality or growth inhibition at 200 ppm [8] | percent effect (mortality or growth inhibition) at 200 ppm [1] | mortality at 200 ppm [2] | mortality at 24 ppm [3] | percent control (mortality, anti-feeding effect or growth inhibition) at 200 ppm [4] | mortality at 200 ppm [5] | percent effect (mortality or growth inhibition) at 200 ppm [6]

CCS(=O)(=O)c1ccc(NC)nc1-c1nc2cc(C(F)(F)F)n(C3CC3)c(=O)c2n1C [Compound A51, 5-cyclopropyl-2-[3-ethylsulfonyl-6-(methylamino)-2-pyridyl]-3-methyl-6-(trifluoromethyl)imidazo[4,5-c]pyridin-4-one]
≥ 80%: effect mortality or growth inhibition at 200 ppm [8] | percent effect (mortality or growth inhibition) at 200 ppm [1] | mortality at 200 ppm [2] | mortality at 24 ppm [3] | percent effect (mortality, anti-feeding or growth inhibition) at 12.5 ppm [7] | percent control (mortality, anti-feeding effect or growth inhibition) at 200 ppm [4] | mortality at 200 ppm [5] | percent effect (mortality or growth inhibition) at 200 ppm [6]

CCn1c(C(F)(F)F)cc2nc(-c3nc(Cl)c(N)cc3S(=O)(=O)CC)n(C)c2c1=O [Compound A53, 2-(5-amino-6-chloro-3-ethylsulfonyl-2-pyridyl)-5-ethyl-3-methyl-6-(trifluoromethyl)imidazo[4,5-c]pyridin-4-one]
≥ 80%: effect mortality or growth inhibition at 200 ppm [8] | percent effect (mortality, anti-feeding or growth inhibition) at 12.5 ppm [7] | percent control (mortality, anti-feeding effect or growth inhibition) at 200 ppm [4] | mortality at 200 ppm [5] | percent effect (mortality or growth inhibition) at 200 ppm [6]

CCn1c(C(F)(F)F)cc2nc(-c3ncc(N(C)N)cc3S(=O)(=O)CC)n(C)c2c1=O [Compound A56, 2-[5-[amino(methyl)amino]-3-ethylsulfonyl-2-pyridyl]-5-ethyl-3-methyl-6-(trifluoromethyl)imidazo[4,5-c]pyridin-4-one]
≥ 80%: effect mortality or growth inhibition at 200 ppm [8] | percent effect (mortality or growth inhibition) at 200 ppm [1] | percent effect (mortality, anti-feeding or growth inhibition) at 12.5 ppm [7] | percent control (mortality, anti-feeding effect or growth inhibition) at 200 ppm [4] | mortality at 200 ppm [5] | percent effect (mortality or growth inhibition) at 200 ppm [6]
